Test system: 422866-222-R5-J1-PDC spheroid viability
Test: Anticancer human tumor 422866-222-R5-J1-PDC patient-derived pancreatic adenocarcinoma cell line growth inhibition [CLK]
Settings: spheroids with HUVEC and MSC; for IC50: curve of first compound; for viability, T/C: stronger effect = lower value
Method in brief: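 Multi-cell-type spheroids combined patient-derived tumor cells with HUVEC endothelial cells and human mesenchymal stem cells. Paired agents were dosed in half-log steps down from about clinical Cmax, or from 10 microM where Cmax was unknown.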

[1] = second compound 0.0316 µM, first compound 0.0316 µM
[2] = second compound 0.0316 µM, first compound 0.1 µM
[3] = second compound 0.0316 µM, first compound 0.316 µM
[4] = second compound 0.0316 µM, first compound 1 µM
[5] = second compound 0.0316 µM, first compound 3.16 µM
[6] = second compound 0.0316 µM, first compound 10 µM
[7] = second compound 0.1 µM, first compound 0.0316 µM
[8] = second compound 0.1 µM, first compound 0.1 µM
[9] = second compound 0.1 µM, first compound 0.316 µM
[10] = second compound 0.1 µM, first compound 1 µM
[11] = second compound 0.1 µM, first compound 3.16 µM
[12] = second compound 0.1 µM, first compound 10 µM
[13] = second compound 0.316 µM, first compound 0.0316 µM
[14] = second compound 0.316 µM, first compound 0.1 µM
[15] = second compound 0.316 µM, first compound 0.316 µM
[16] = second compound 0.316 µM, first compound 1 µM
[17] = second compound 0.316 µM, first compound 3.16 µM
[18] = second compound 0.316 µM, first compound 10 µM
[19] = second compound 1 µM, first compound 0.0316 µM
[20] = second compound 1 µM, first compound 0.1 µM
[21] = second compound 1 µM, first compound 0.316 µM
[22] = second compound 1 µM, first compound 1 µM
[23] = second compound 1 µM, first compound 3.16 µM
[24] = second compound 1 µM, first compound 10 µM
[25] = second compound 3.16 µM, first compound 0.0316 µM
[26] = second compound 3.16 µM, first compound 0.1 µM
[27] = second compound 3.16 µM, first compound 0.316 µM
[28] = second compound 3.16 µM, first compound 1 µM
[29] = second compound 3.16 µM, first compound 3.16 µM
[30] = second compound 3.16 µM, first compound 10 µM
[31] = second compound 10 µM, first compound 0.0316 µM
[32] = second compound 10 µM, first compound 0.1 µM
[33] = second compound 10 µM, first compound 0.316 µM
[34] = second compound 10 µM, first compound 1 µM
[35] = second compound 10 µM, first compound 3.16 µM
[36] = second compound 10 µM, first compound 10 µM
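Note: spheroids exposed to agents for seven days before readout.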

Work on `C=C(F)C(=O)N1CCN(c2nc(OCC3CCCN3C)nc3c2CCN(c2cccc4cccc(Cl)c24)C3)CC1CC#N` (centres undefined) + CNC(=O)c1ccc(Nc2nc(OC3CCCC3)c3c(-c4ccc5nc(C)oc5c4)c[nH]c3n2)c(OC)c1 yielded an IC50 (second compound 0.0316 µM) of under 0.0316 µM, an IC50 (second compound 0.1 µM) of under 0.0316 µM and an IC50 (second compound 0.316 µM) of under 0.0316 µM. It also gave an IC50 (second compound 1 µM) of under 0.0316 µM, an IC50 (second compound 3.16 µM) of under 0.0316 µM and an IC50 (second compound 10 µM) of under 0.0316 µM. The viability, T/C [1] was 39.9%, the viability, T/C [2] was 29.7% and the viability, T/C [3] was 23.2%. It also gave a viability, T/C [4] of 25.3%, a viability, T/C [5] of 15.7% and a viability, T/C [6] of 0.15%. For the same compound, the viability, T/C [7] was 38.7%, the viability, T/C [8] was 23.9% and the viability, T/C [9] was 23.3%. It also gave a viability, T/C [10] of 20.6%, a viability, T/C [11] of 15% and a viability, T/C [12] of 0.14%. It also gave a viability, T/C [13] of 29.8%, a viability, T/C [14] of 23.6% and a viability, T/C [15] of 25.1%. For the same compound, the viability, T/C [16] was 23.1%, the viability, T/C [17] was 14.8% and the viability, T/C [18] was 0.14%. For the same compound, the viability, T/C [19] was 30.3%, the viability, T/C [20] was 24.8% and the viability, T/C [21] was 22.4%. It also gave a viability, T/C [22] of 23.3%, a viability, T/C [23] of 18.2% and a viability, T/C [24] of 4.65%. The viability, T/C [25] was 28.4%, the viability, T/C [26] was 29.2% and the viability, T/C [27] was 24.5%. The viability, T/C [28] was 25%, the viability, T/C [29] was 20.4% and the viability, T/C [30] was 0.15%. The viability, T/C [31] was 30%, the viability, T/C [32] was 28.4% and the viability, T/C [33] was 28.1%. The viability, T/C [34] was 24.6%, the viability, T/C [35] was 18.5% and the viability, T/C [36] was 0.17%.
Work on `C=CC(=O)N1CCN(c2nc(=O)n(-c3c(C)ccnc3C(C)C)c3nc(-c4c(O)cccc4F)c(F)cc23)C(C)C1` (centres undefined) + CNC(=O)c1ccc(Nc2nc(OC3CCCC3)c3c(-c4ccc5nc(C)oc5c4)c[nH]c3n2)c(OC)c1 yielded an IC50 (second compound 0.0316 µM) of under 0.0316 µM, an IC50 (second compound 0.1 µM) of under 0.0316 µM and an IC50 (second compound 0.316 µM) of under 0.0316 µM. For the same compound, the IC50 (second compound 1 µM) was under 0.0316 µM, the IC50 (second compound 3.16 µM) was under 0.0316 µM and the IC50 (second compound 10 µM) was under 0.0316 µM. For the same compound, the viability, T/C [1] was 36.8%, the viability, T/C [2] was 35.4% and the viability, T/C [3] was 29.5%. For the same compound, the viability, T/C [4] was 27.4%, the viability, T/C [5] was 23.5% and the viability, T/C [6] was 24.6%. The viability, T/C [7] was 34.6%, the viability, T/C [8] was 33.2% and the viability, T/C [9] was 27.6%. For the same compound, the viability, T/C [10] was 28.7%, the viability, T/C [11] was 26% and the viability, T/C [12] was 26.1%. The viability, T/C [13] was 34.9%, the viability, T/C [14] was 30.8% and the viability, T/C [15] was 27.1%. It also gave a viability, T/C [16] of 25.6%, a viability, T/C [17] of 24.8% and a viability, T/C [18] of 26.2%. For the same compound, the viability, T/C [19] was 35.7%, the viability, T/C [20] was 25.7% and the viability, T/C [21] was 28.8%. For the same compound, the viability, T/C [22] was 25.3%, the viability, T/C [23] was 31.9% and the viability, T/C [24] was 27.7%. It also gave a viability, T/C [25] of 32.3%, a viability, T/C [26] of 29.9% and a viability, T/C [27] of 28.3%. The viability, T/C [28] was 24.4%, the viability, T/C [29] was 27.6% and the viability, T/C [30] was 30.9%. For the same compound, the viability, T/C [31] was 32%, the viability, T/C [32] was 28.9% and the viability, T/C [33] was 27.8%. The viability, T/C [34] was 27.4%, the viability, T/C [35] was 29.9% and the viability, T/C [36] was 26.4%.

Reference: PubChem BioAssay AID2060603 (Molecular Pharmacology Branch, DTP, NCI, 2025)
